Reference: PMC11079024, “Identification of a family of species-selective complex I inhibitors as potential anthelmintics” (Nature Communications, 2024)
Several values for one entry are separate records, joined by “and”; a condition that tells them apart may be missing. Equal entries are not always repeated. Where two headings read alike, the source gives them in different places.

What was measured:
[1] = target: B. taurus (heart) complex I (Bos taurus, UniProt P03887+P17694+P42026); experiment: biochemical; type: biochemical
Procedure, shortened: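 Complex I activity followed as DCIP reduction (600 nm, 30 s reads, 15 min) with 80 μM NADH and 60 μM decylubiquinone in 25 mM KPi pH 7.5 containing 2 μM antimycin A and 2 mM KCN. Freeze-thawed mouse or bovine heart mitochondria at 0.2 mg/mL; initial-rate percent of solvent control, single-point 100 μM or dose-response.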

[2] = target: C. elegans (N2) complex I (NADH:ubiquinone oxidoreductase) (Caenorhabditis elegans, UniProt P24887+Q93873+Q94360); experiment: biochemical; type: biochemical; conditions: wild-type C. elegans mitochondria, read-out: percent (%) in vitro complex I activity relative to solvent control
Procedure, shortened: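 Mitochondria, 0.2 mg/mL protein, freeze-thawed three times, assayed in 25 mM KPi pH 7.5 with BSA, 80 μM NADH, 60 μM decylubiquinone, 160 μM DCIP, antimycin A and KCN. Rate from initial linear slope of A600 over 15 min. % of solvent control.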

Chain of B. taurus (heart) complex I (P03887 whole entry): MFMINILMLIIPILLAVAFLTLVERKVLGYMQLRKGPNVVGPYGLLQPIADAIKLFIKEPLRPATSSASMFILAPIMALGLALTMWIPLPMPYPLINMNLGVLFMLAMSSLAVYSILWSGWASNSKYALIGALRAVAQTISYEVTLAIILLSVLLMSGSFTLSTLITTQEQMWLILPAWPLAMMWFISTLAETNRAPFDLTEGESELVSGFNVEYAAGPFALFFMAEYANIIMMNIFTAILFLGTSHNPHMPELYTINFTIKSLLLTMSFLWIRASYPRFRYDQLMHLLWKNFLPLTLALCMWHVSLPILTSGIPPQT
Chain of B. taurus (heart) complex I (P17694 34-463): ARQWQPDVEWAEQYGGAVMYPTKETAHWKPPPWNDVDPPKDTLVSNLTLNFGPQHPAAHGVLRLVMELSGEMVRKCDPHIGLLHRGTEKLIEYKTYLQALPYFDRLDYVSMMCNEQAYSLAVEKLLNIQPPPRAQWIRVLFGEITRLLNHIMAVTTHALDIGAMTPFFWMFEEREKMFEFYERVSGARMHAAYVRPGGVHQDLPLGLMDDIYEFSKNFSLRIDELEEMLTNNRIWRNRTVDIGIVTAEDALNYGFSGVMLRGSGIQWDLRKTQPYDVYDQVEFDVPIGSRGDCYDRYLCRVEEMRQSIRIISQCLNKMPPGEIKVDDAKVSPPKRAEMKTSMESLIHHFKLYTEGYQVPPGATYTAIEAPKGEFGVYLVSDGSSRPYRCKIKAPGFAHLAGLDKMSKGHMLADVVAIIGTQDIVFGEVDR
Chain of B. taurus (heart) complex I (P42026 38-216): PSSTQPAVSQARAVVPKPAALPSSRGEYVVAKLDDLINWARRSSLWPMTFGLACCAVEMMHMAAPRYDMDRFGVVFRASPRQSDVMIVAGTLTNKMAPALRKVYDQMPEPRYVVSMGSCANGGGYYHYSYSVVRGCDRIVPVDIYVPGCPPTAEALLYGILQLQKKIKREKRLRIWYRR
Chain of C. elegans (N2) complex I (NADH:ubiquinone oxidoreductase) (Q94360 17-199): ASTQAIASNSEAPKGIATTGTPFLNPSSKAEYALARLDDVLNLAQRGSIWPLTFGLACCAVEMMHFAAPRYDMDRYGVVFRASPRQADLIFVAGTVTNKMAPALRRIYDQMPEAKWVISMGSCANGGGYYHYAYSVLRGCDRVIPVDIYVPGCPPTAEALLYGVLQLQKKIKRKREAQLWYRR
Chain of C. elegans (N2) complex I (NADH:ubiquinone oxidoreductase) (P24887 whole entry): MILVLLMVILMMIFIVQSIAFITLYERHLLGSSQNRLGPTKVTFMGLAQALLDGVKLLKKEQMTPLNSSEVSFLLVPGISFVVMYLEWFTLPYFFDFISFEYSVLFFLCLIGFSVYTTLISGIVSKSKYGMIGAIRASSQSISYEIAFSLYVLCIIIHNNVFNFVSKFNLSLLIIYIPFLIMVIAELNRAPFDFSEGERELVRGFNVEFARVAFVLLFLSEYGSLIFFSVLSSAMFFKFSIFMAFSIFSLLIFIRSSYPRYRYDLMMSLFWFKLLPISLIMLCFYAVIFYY
Chain of C. elegans (N2) complex I (NADH:ubiquinone oxidoreductase) (Q93873 31-482): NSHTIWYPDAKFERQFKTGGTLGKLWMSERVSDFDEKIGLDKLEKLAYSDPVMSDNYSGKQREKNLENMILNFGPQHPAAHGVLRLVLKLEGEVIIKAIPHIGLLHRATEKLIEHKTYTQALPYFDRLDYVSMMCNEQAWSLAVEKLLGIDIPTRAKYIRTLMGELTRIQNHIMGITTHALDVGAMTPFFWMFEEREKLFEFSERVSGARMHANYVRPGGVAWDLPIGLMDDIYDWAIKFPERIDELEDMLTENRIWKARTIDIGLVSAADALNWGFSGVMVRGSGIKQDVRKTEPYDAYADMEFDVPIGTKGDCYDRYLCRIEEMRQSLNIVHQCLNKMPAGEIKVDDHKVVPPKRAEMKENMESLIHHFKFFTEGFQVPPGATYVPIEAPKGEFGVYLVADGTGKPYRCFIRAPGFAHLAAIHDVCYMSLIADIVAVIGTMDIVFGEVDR

With COc1cc2c(cc1OC)C(/C=C/c1ccc(N(C)C)cc1)=NCC2 [NPD6303] the activity at 0.0001 µM ([1]; B. taurus, dose 0.0001 µM, Mean of replicates, read-out: Complex I activity, dose-response data) was 91.7%, the “Complex I activity, dose-response data” value ([1]; B. taurus, dose 0.0001 µM, individual replicates (Rep)) was 93.903 and 88.856 and 86.554 and the activity at 0.0001 µM ([1]; B. taurus, dose 0.0001 µM, individual replicates (Rep), read-out: Complex I activity, dose-response data) was 97.5%. The activity at 0.0005 µM ([1]; B. taurus, dose 0.0005 µM, Mean of replicates, read-out: Complex I activity, dose-response data) was 92.3%, the “Complex I activity, dose-response data” value ([1]; B. taurus, dose 0.0005 µM, individual replicates (Rep)) was 92.515 and 88.363 and 93.860 and the activity at 0.0005 µM ([1]; B. taurus, dose 0.0005 µM, individual replicates (Rep), read-out: Complex I activity, dose-response data) was 94.5%. The activity at 0.001 µM ([1]; B. taurus, dose 0.001 µM, Mean of replicates, read-out: Complex I activity, dose-response data) was 92%, the “Complex I activity, dose-response data” value ([1]; B. taurus, dose 0.001 µM, individual replicates (Rep)) was 95.392 and 88.341 and 90.155 and the activity at 0.001 µM ([1]; B. taurus, dose 0.001 µM, individual replicates (Rep), read-out: Complex I activity, dose-response data) was 93.9%. For the same compound, the activity at 0.0025 µM ([1]; B. taurus, dose 0.0025 µM, Mean of replicates, read-out: Complex I activity, dose-response data) was 91.7%, the “Complex I activity, dose-response data” value ([1]; B. taurus, dose 0.0025 µM, individual replicates (Rep)) was 92.736 and 89.606 and 94.534 and the activity at 0.0025 µM ([1]; B. taurus, dose 0.0025 µM, individual replicates (Rep), read-out: Complex I activity, dose-response data) was 89.8%. The activity at 0.005 µM ([1]; B. taurus, dose 0.005 µM, Mean of replicates, read-out: Complex I activity, dose-response data) was 93.7%, the “Complex I activity, dose-response data” value ([1]; B. taurus, dose 0.005 µM, individual replicates (Rep)) was 98.592 and 81.676 and 99.845 and the activity at 0.005 µM ([1]; B. taurus, dose 0.005 µM, individual replicates (Rep), read-out: Complex I activity, dose-response data) was 94.8%. The activity at 0.013 µM ([1]; B. taurus, dose 0.013 µM, Mean of replicates, read-out: Complex I activity, dose-response data) was 94.7%, the “Complex I activity, dose-response data” value ([1]; B. taurus, dose 0.013 µM, individual replicates (Rep)) was 95.041 and 103.924 and 78.354 and 101.425 and the activity at 0.025 µM ([1]; B. taurus, dose 0.025 µM, Mean of replicates, read-out: Complex I activity, dose-response data) was 91.5%. For the same compound, the “Complex I activity, dose-response data” value ([1]; B. taurus, dose 0.025 µM, individual replicates (Rep)) was 93.260 and 100.684 and 76.425 and 95.829, the activity at 0.063 µM ([1]; B. taurus, dose 0.063 µM, Mean of replicates, read-out: Complex I activity, dose-response data) was 90.4% and the “Complex I activity, dose-response data” value ([1]; B. taurus, dose 0.063 µM, individual replicates (Rep)) was 90.670 and 95.493 and 75.718 and 99.663. For the same compound, the activity at 0.125 µM ([1]; B. taurus, dose 0.125 µM, Mean of replicates, read-out: Complex I activity, dose-response data) was 88.5%, the “Complex I activity, dose-response data” value ([1]; B. taurus, dose 0.125 µM, individual replicates (Rep)) was 91.682 and 93.823 and 68.860 and 99.585 and the activity at 0.313 µM ([1]; B. taurus, dose 0.313 µM, Mean of replicates, read-out: Complex I activity, dose-response data) was 88.2%. The “Complex I activity, dose-response data” value ([1]; B. taurus, dose 0.313 µM, individual replicates (Rep)) was 96.036 and 78.933 and 86.373, the activity at 0.313 µM ([1]; B. taurus, dose 0.313 µM, individual replicates (Rep), read-out: Complex I activity, dose-response data) was 91.3% and the activity at 0.625 µM ([1]; B. taurus, dose 0.625 µM, Mean of replicates, read-out: Complex I activity, dose-response data) was 97.3%. For the same compound, the “Complex I activity, dose-response data” value ([1]; B. taurus, dose 0.625 µM, individual replicates (Rep)) was 107.704 and 91.974 and 95.636, the activity at 0.625 µM ([1]; B. taurus, dose 0.625 µM, individual replicates (Rep), read-out: Complex I activity, dose-response data) was 93.9% and the activity at 1.5 µM ([1]; B. taurus, dose 1.5 µM, Mean of replicates, read-out: Complex I activity, dose-response data) was 93.1%. The “Complex I activity, dose-response data” value ([1]; B. taurus, dose 1.5 µM, individual replicates (Rep)) was 104.204 and 86.663 and 89.601, the activity at 1.5 µM ([1]; B. taurus, dose 1.5 µM, individual replicates (Rep), read-out: Complex I activity, dose-response data) was 92.1% and the activity at 3 µM ([1]; B. taurus, dose 3 µM, Mean of replicates, read-out: Complex I activity, dose-response data) was 91.2%. For the same compound, the “Complex I activity, dose-response data” value ([1]; B. taurus, dose 3 µM, individual replicates (Rep)) was 87.892 and 104.226 and 89.807 and 82.898, the activity at 15 µM ([1]; B. taurus, dose 15 µM, Mean of replicates, read-out: Complex I activity, dose-response data) was 76.4% and the “Complex I activity, dose-response data” value ([1]; B. taurus, dose 15 µM, individual replicates (Rep)) was 86.661 and 69.921 and 66.695. For the same compound, the activity at 15 µM ([1]; B. taurus, dose 15 µM, individual replicates (Rep), read-out: Complex I activity, dose-response data) was 82.4%, the activity at 37.5 µM ([1]; B. taurus, dose 37.5 µM, Mean of replicates, read-out: Complex I activity, dose-response data) was 51.7% and the “Complex I activity, dose-response data” value ([1]; B. taurus, dose 37.5 µM, individual replicates (Rep)) was 53.115 and 63.240 and 41.319 and 49.280. For the same compound, the activity at 75 µM ([1]; B. taurus, dose 75 µM, Mean of replicates, read-out: Complex I activity, dose-response data) was 29.9%, the “Complex I activity, dose-response data” value ([1]; B. taurus, dose 75 µM, individual replicates (Rep)) was 35.395 and 24.387 and 27.438 and the activity at 75 µM ([1]; B. taurus, dose 75 µM, individual replicates (Rep), read-out: Complex I activity, dose-response data) was 32.4%. For the same compound, the IC50 ([1]; heart mitochondria, read-out: B. taurus Complex I IC50) was 34.3 µM, the remaining activity at 0.125 µM ([2]; mean of replicates) was 93.1% and the remaining activity at 0.125 µM ([2]; single replicate) was 103%. It also gave a remaining activity at 0.313 µM ([2]; mean of replicates) of 88%, a remaining activity at 0.313 µM ([2]; single replicate) of 83.6% and a remaining activity at 0.625 µM ([2]; mean of replicates) of 108%. For the same compound, the remaining activity at 0.625 µM ([2]; single replicate) was 106%, the remaining activity at 1.5 µM ([2]; mean of replicates) was 100% and the remaining activity at 1.5 µM ([2]; single replicate) was 100%. For the same compound, the remaining activity at 3 µM ([2]; 3 µM, mean of replicates) was 89.5%.
